Where two headings read alike, the source gives them in different places.
Experiments:
Human opiate κ receptors [1] = molecular target: T1, Human opiate κ receptors (Homo sapiens, UniProt P41145); type: binding; parameters: expressed in transfected cells; host or cells: HEK-293 cell membranes
Human opiate κ receptors [2] = molecular target: T1, Human opiate κ receptors; experiment: κ opioid receptor functional assay, [35S]GTPγS binding (assay C); type: biochemical; conditions: for activation at 1 µM: 0.5 h, read-out: % activation functional assay at 1 μM
[3] = read-out: EC50 (nM) [35S]GTPγS binding

T1 sequence (P41145 whole entry): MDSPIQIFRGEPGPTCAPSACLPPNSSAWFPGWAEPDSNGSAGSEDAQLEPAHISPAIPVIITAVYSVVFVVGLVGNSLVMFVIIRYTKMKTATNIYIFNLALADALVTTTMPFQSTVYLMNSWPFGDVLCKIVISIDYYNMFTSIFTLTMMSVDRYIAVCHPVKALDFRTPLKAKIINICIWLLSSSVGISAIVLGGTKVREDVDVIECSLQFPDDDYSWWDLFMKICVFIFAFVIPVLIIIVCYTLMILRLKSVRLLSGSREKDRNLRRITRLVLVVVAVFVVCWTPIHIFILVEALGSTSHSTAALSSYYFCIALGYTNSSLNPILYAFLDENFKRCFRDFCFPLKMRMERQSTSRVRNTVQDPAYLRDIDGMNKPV

SMILES | % binding at 100 nM (Human opiate κ receptors [1]) | % activation functional assay at 1 μM (Human opiate κ receptors [2]) | EC50 (Human opiate κ receptors [2]; read-out: GTPγS EC50) | also measured
COC(=O)N1CCN(C(=O)Cc2ccc(Cl)c(Cl)c2)C2C(N3CCC(C(N)=O)C3)CCCC21.Cl (mixture of isomers) [Example 84] | 89% | 99% | 10 to 100 nM | –
COC(=O)N1CCN(C(=O)Cc2cc(F)cc(F)c2)[C@@H]2[C@@H](N3CCCC3)CCC[C@@H]21.Cl (racemic) [Example 2] | 41% | – | – | –
COC(=O)N1CCN(C(=O)Cc2ccc([N+](=O)[O-])cc2)[C@@H]2[C@@H](N3CCCC3)CCC[C@@H]21.Cl (racemic) [Example 4] | 43% | – | – | –
COC(=O)N1CCN(C(=O)Cc2c[nH]c3ccccc23)[C@@H]2[C@@H](N3CCCC3)CCC[C@@H]21.Cl (racemic) [Example 9] | 43% | – | – | –
COC(=O)N1CCN(C(=O)Cc2ccc(Cl)c(Cl)c2)[C@@H]2[C@@H](N(C)C)CCC[C@@H]21.Cl (racemic) [Example 17] | 92% | 92% | < 10 nM | % binding at 1 μM (Human opiate κ receptors [1]): 97%
Cl.O=C(Cc1ccc(Cl)c(Cl)c1)N1CCN(C(=O)NCc2ccccc2)[C@H]2CCC[C@H](N3CCCC3)[C@H]21 (racemic) [Example 41] | 92% | 81% | < 10 nM | –
Cl.NCC(=O)N1CCN(C(=O)Cc2ccc(Cl)c(Cl)c2)[C@@H]2[C@@H](N3CCCC3)CCC[C@@H]21 (racemic) [Example 44] | 41% | – | – | –
CCOC(=O)COC(=O)N1CCN(C(=O)Cc2ccc(Cl)c(Cl)c2)C2C(N3CCCC3)CCCC21.Cl (stereo not drawn) [Example 111] | 105% | 105% | < 10 nM | –
CC(C)NC(=O)N1CCN(C(=O)Cc2ccc(Cl)c(F)c2)C2C(N3CCC(O)C3)CCCC21.Cl (stereo not drawn) [Example 119] | – | 102% | 10 to 100 nM | –
CC(C)NC(=O)N1CCN(C(=O)Cc2ccc(Cl)c(Cl)c2)C2C(N3CCC(O)C3)CCCC21.Cl (stereo not drawn) [Example 120] | – | 100% | < 10 nM | –
CS(=O)(=O)N1CCN(C(=O)Cc2ccc(Cl)c(Cl)c2)C2C(N3CCC(O)C3)CCCC21.Cl (stereo not drawn) [Example 121] | – | 106% | < 10 nM | –
CC(C)OC(=O)C(=O)N1CCN(C(=O)Cc2ccc(Cl)c(Cl)c2)[C@@H]2[C@@H](N3CCCC3)CCC[C@@H]21.Cl [Example 123] | 68% | 99% | < 10 nM | –
CS(=O)(=O)N1CCN(C(=O)Cc2ccc(C(F)(F)F)c(Cl)c2)[C@@H]2[C@@H](N3CC[C@H](O)C3)CCC[C@@H]21 [Example 124] | – | – | – | activation at 1 µM (Human opiate κ receptors [2]): 97%; EC50 (Human opiate κ receptors [2]; GTPγS EC50 (nM)): < 10 nM
Cl.O=C(Cc1ccc(Cl)c(Cl)c1)N1CCN(S(=O)(=O)N2CCCC2)C2CCCC(N3CCC(O)C3)C21 (stereo not drawn) [Example 127] | 66% | 100% | 10 to 100 nM | –
Cl.O=C(Cc1ccc(Cl)c(Cl)c1)N1CCN(S(=O)(=O)c2cn[nH]c2)C2CCCC(N3CCC(O)C3)C21 (stereo not drawn) [Example 128] | 92% | 95% | < 10 nM | –
CN(C)S(=O)(=O)N1CCN(C(=O)Cc2ccc(Cl)c(Cl)c2)C2C(N3CCC(O)C3)CCCC21.Cl (stereo not drawn) [Example 129] | 80% | 104% | < 10 nM | –
Cl.O=C(Cc1ccc(Cl)c(Cl)c1)N1CCN(S(=O)(=O)NCCO)C2CCCC(N3CCC(O)C3)C21 (stereo not drawn) [Example 130] | 70% | 102% | 10 to 100 nM | –
CNS(=O)(=O)N1CCN(C(=O)Cc2ccc(Cl)c(Cl)c2)C2C(N3CCC(O)C3)CCCC21.Cl (stereo not drawn) [Example 131] | 78% | 104% | < 10 nM | –

SMILES | % binding at 100 nM (Human opiate κ receptors [1]) | % activation functional assay at 1 μM (Human opiate κ receptors [2]) | EC50 (Human opiate κ receptors [2]; read-out: GTPγS EC50) | also measured
CCNS(=O)(=O)N1CCN(C(=O)Cc2ccc(Cl)c(Cl)c2)C2C(N3CCC(O)C3)CCCC21.Cl (stereo not drawn) [Example 132] | 71% | 106% | < 10 nM | –
CCCNS(=O)(=O)N1CCN(C(=O)Cc2ccc(Cl)c(Cl)c2)C2C(N3CCC(O)C3)CCCC21.Cl (stereo not drawn) [Example 133] | 74% | 105% | < 10 nM | –
CC(C)NS(=O)(=O)N1CCN(C(=O)Cc2ccc(Cl)c(Cl)c2)[C@@H]2[C@@H](N3CC[C@H](O)C3)CCC[C@@H]21 [Example 134] | 67% | 102% | < 10 nM | –
O=C(Cc1ccc(Cl)c(Cl)c1)N1CCN(S(=O)(=O)NC2CCCC2)[C@H]2CCC[C@H](N3CC[C@H](O)C3)[C@H]21 [Example 135] | 76% | 105% | < 10 nM | –
COC(=O)N1CCN(C(=O)Cc2ccc(F)c(F)c2)[C@@H]2[C@@H](N3CC[C@H](O)C3)CCC[C@@H]21 [Example 138] | – | – | – | activation at 1 µM (Human opiate κ receptors [2]): 108%; EC50 (Human opiate κ receptors [2]; GTPγS EC50 (nM)): 10 to 100 nM
COC(=O)N1CCN(C(=O)Cc2ccc(C(F)(F)F)cc2)[C@@H]2[C@@H](N3CC[C@H](O)C3)CCC[C@@H]21 [Example 139] | – | – | – | activation at 1 µM (Human opiate κ receptors [2]): 104%; EC50 (Human opiate κ receptors [2]; GTPγS EC50 (nM)): < 10 nM
COC(=O)N1CCN(C(=O)Cc2ccc(Cl)cc2)[C@@H]2[C@@H](N3CC[C@H](O)C3)CCC[C@@H]21 [Example 140] | – | – | – | activation at 1 µM (Human opiate κ receptors [2]): 103%; EC50 (Human opiate κ receptors [2]; GTPγS EC50 (nM)): 10 to 100 nM
COC(=O)N1CCN(C(=O)Cc2ccc(C(F)(F)F)c(F)c2)[C@@H]2[C@@H](N3CC[C@H](O)C3)CCC[C@@H]21 [Example 141] | – | – | – | activation at 1 µM (Human opiate κ receptors [2]): 99%; EC50 (Human opiate κ receptors [2]; GTPγS EC50 (nM)): < 10 nM
COC(=O)N1CCN(C(=O)Cc2cccc(C(F)(F)F)c2)[C@@H]2[C@@H](N3CC[C@H](O)C3)CCC[C@@H]21 [Example 142] | – | – | – | activation at 1 µM (Human opiate κ receptors [2]): 106%; EC50 (Human opiate κ receptors [2]; GTPγS EC50 (nM)): 10 to 100 nM
COC(=O)N1CCN(C(=O)Cc2cccc(Cl)c2)[C@@H]2[C@@H](N3CC[C@H](O)C3)CCC[C@@H]21 [Example 143] | – | – | – | activation at 1 µM (Human opiate κ receptors [2]): 102%; EC50 (Human opiate κ receptors [2]; GTPγS EC50 (nM)): 10 to 100 nM
O=C(c1ccccc1)N1CCN(C(=O)Cc2ccc(Cl)c(Cl)c2)C2C(N3CCCC3)CCCC21 (stereo not drawn) [L, reference compound] | – | – | – | activation (% of control) at 1 μM (Human opiate κ receptors [2]): 74 % of control
CCC(=O)N1CCN(C(=O)Cc2ccc(Cl)c(Cl)c2)C2C(N3CCCC3)CCCC21 (stereo not drawn) [N, reference compound] | – | – | – | activation (% of control) at 1 μM (Human opiate κ receptors [2]): 63 % of control; EC50 (Human opiate κ receptors [2]; [3]): 600 nM
COC(=O)CC(=O)N1CCN(C(=O)Cc2ccc(Cl)c(Cl)c2)C2C(N3CCCC3)CCCC21 (stereo not drawn) [P, reference compound] | – | – | – | activation (% of control) at 1 μM (Human opiate κ receptors [2]): 81 % of control; EC50 (Human opiate κ receptors [2]; [3]): 220 nM
O=C(c1ccccc1)N1CCN(C(=O)Cc2ccc(Cl)c(Cl)c2)C2C(N3CCC(O)C3)CCCC21 (stereo not drawn) [R, reference compound] | – | – | – | activation (% of control) at 1 μM (Human opiate κ receptors [2]): 63 % of control
COC(=O)N1CCN(C(=O)Cc2ccc(Cl)c(Cl)c2)C2C(N3CCC(O)C3)CCCC21 (stereo not drawn) [S, reference compound] | – | – | – | activation (% of control) at 1 μM (Human opiate κ receptors [2]; 1 µM): 91 % of control; EC50 (Human opiate κ receptors [2]; [3]): 85 nM
COC(=O)CC(=O)N1CCN(C(=O)Cc2ccc(Cl)c(Cl)c2)C2C(N3CCC(O)C3)CCCC21 (stereo not drawn) [U, reference compound] | – | – | – | activation (% of control) at 1 μM (Human opiate κ receptors [2]): 86 % of control; EC50 (Human opiate κ receptors [2]; [3]): 170 nM
CCCCN1CCN(C(=O)Cc2ccc(Cl)c(Cl)c2)C2C(N3CCCC3)CCCC21 (stereo not drawn) [W, reference compound] | – | – | – | activation (% of control) at 1 μM (Human opiate κ receptors [2]): 113 % of control; EC50 (Human opiate κ receptors [2]; [3]): 12 nM
COc1ccc(CN2CCN(C(=O)Cc3ccc(Cl)c(Cl)c3)C3C(N4CCCC4)CCCC32)cc1 (stereo not drawn) [X, reference compound] | – | – | – | activation (% of control) at 1 μM (Human opiate κ receptors [2]): 91 % of control; EC50 (Human opiate κ receptors [2]; [3]): 26 nM
